This assay concerns the target T1, L-amino-acid oxidase (Homo sapiens, UniProt Q96RQ9).
T1 sequence (Q96RQ9 whole entry): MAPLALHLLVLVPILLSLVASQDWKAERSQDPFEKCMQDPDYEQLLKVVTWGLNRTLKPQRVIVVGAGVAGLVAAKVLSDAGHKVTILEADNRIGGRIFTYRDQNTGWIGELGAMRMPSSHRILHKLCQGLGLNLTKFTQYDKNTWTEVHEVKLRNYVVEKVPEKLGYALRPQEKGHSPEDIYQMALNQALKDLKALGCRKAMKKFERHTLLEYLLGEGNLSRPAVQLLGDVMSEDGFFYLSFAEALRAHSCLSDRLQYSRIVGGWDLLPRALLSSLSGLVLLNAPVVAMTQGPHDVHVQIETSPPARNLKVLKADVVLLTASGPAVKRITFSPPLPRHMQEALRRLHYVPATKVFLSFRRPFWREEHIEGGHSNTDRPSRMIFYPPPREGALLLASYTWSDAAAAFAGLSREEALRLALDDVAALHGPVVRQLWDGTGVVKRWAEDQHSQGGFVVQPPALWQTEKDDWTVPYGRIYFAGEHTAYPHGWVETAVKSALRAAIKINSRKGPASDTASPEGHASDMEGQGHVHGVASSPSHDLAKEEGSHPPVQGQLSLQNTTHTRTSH
In words: IL4I1 Enzymatic Assay. On the procedure: nterleukin 4 inducible protein 1 (IL4I1) is an L-amino oxidase that catalyzes the oxidation of aromatic residues (Phe, Trp and Tyr): L-amino acid+H2O+O2→2-oxo acid+NH3+H2O2. Equal molar of H2O2 and the corresponding alpha-ketoacid are produced when IL4I1 and substrate are added. In this assay, the hydrogen peroxide generated by IL4I1 are then detected through a coupled reaction with Amplex Red (10-acetyl-3,7-dihydroxyphenoxazine) and […] (HRP) to produce Resorufin product that could be detected in the form of fluorescence signals. The assessment of the inhibitory effect of small molecules (EC50) on IL4I1 is measured by the effectiveness of the compounds to inhibit the production of H2O2.Using this assay, the potency (EC50) of each compound was determined from a ten-point (1:3 serial dilution; top compound concentration of 10000 nM) titration curve using the following outlined procedure. To each well of a black flat-bottom Greiner (Cat #781076) 384 well-plate, 25 nL of compound (0.1% DMSO in final assay volume of 25 μL) was dispensed, followed by the addition of 12.5 μL of 1× assay buffer (50 mM Hepes 7.0 and 0.005% Tween20 (Sigma, Cat #P8341; low peroxide grade)) containing 2 nM of recombinant IL4I1 (R&D Systems, Cat #5684-AO-020). Plates were placed in an ambient temperature humidified chamber for a four-hour pre-incubation with compound. Subsequently, each reaction was initiated by the addition of 12.5 μL 1× assay buffer containing 2 mM of each aromatic amino acids (Phe/Tyr/Trp), 0.1 mM Amplex Red and 2 U/mL of HRP. The final reaction in each well of 25 μL consists of 1 nM of IL4I1, 1 mM of each residues (Phe, Tyr and Trp), 0.05 mM Amplex Red and 1 U/mL of HRP. It should be noted that the concentrations of Amplex Red and HRP used here are in excess such that the conversion of H2O2 to Resorufin product occurs instantaneously and non-rate limiting.

Turning to `O=c1[nH]c2ccccc2cc1Cc1ccc(C2(F)CNC2)cc1` [US20240287022, Example 76], the EC50 was determined as 0.0082 µM.
The result for `Cn1c(=O)c(Cc2ccc(Cc3nnco3)cc2)cc2ccccc21` [US20240287022, Example 145] reads 0.154 µM; that for `O=c1[nH]c2ccncc2cc1Cc1ccc2scnc2c1` [US20240287022, Example 114], 0.0015 µM.
For `N#CCc1ccc(Cc2cc3ccccc3[nH]c2=O)cn1` [US20240287022, Example 93], the concentration giving a half-maximal response (EC50) was determined as 0.0144 µM.

In general, EC50 refers to the concentration giving half of the maximal effect. Read a high EC50 as weaker potency.

The values above are taken from BindingDB's records for patent US20240287022 (Merck Sharp & Dohme, 2024).
